Data: ChEMBL document CHEMBL1800009, “Pyrazolopyridazine alpha-2-delta-1 ligands for the treatment of neuropathic pain” (Bioorg Med Chem Lett, 2010)

Experiments:
in vivo [1] = details: rat, whole blood
in vivo [2] = details: rat, brain/blood, 30 mg/kg

| Compound | clearance (in vivo [1]) [mL/min/kg] | Kp (in vivo [2]) |
| --- | --- | --- |
| Cc1nnc(N2CCCC2)c2nn(-c3ccc(OCC(F)(F)F)cc3)c(C)c12 | 49 | – |
| COC1CN(c2nnc(C)c3c(C)n(-c4ccc(Cl)cc4OC(F)(F)F)nc23)C1 | 52 | 0.94 |
